We go through 1 compound from ChEMBL document CHEMBL5620416, “Design, synthesis and development of a dual inhibitor of Topoisomerase 1 and poly (ADP-ribose) polymerase 1 for efficient killing of cancer cells” (Eur J Med Chem, 2023).

What is called IC50 is the concentration that gives 50% inhibition.

Data set [1] deals with HCT-116. Put plainly: Induction of cell cycle arrest in human HCT-116 cells assessed as accumulation of cells at S phase at 5 uM incubated for 48 hrs by PI staining based flow cytometry analysis (reference value: 17%). It is filed as functional.
Data set [2] has as its system HCT-116. Nature of the data set: Induction of cell cycle arrest in human HCT-116 cells assessed as accumulation of cells at S phase at 20 uM incubated for 48 hrs by PI staining based flow cytometry analysis (reference value: 17%). It counts as functional. On the technique in general: Flow cytometry measures light scatter and fluorescence of single cells or particles in a stream.

Data set [3] has as its system HCT-116. Nature of the data set: Cytotoxicity against human HCT-116 cells at less than 10 uM incubated for 7 to 10 days by crystal violet staining based assay. It is filed as functional, cell-based. To be noted: time 7-10 day.
For data set [4], the system named is DNA topoisomerase 1/Deoxyribonucleic acid (Homo sapiens). Put plainly: Induction of TOP1-DNA covalent complex stabilization in human HCT-116 cells after 2 to 8 hrs by immunofluorescence microscopic assay. It is filed as cell-based. The settings on record: dose 20.0 µM, time 2-8 hrs.
Data set [5] has the same test system. Put plainly: Induction of TOP1-DNA covalent complex stabilization in human HCT-116 cells at 10 to 20 uM by RADAR assay. The settings on record: dose 10-20 µM, time 2-6 hrs, TDE = time-dependent effect. It is filed as cell-based.
For data set [6], the system named is HCT-116. Put plainly: Induction of cell cycle arrest in human HCT-116 cells assessed as accumulation of cells at Sub-G1 phase at 5 uM incubated for 48 hrs by PI staining based flow cytometry analysis (reference value: 2.7 +/- 0.4%). It is filed as functional.
For data set [7], the system named is HCT-116. Nature of the data set: Induction of cell cycle arrest in human HCT-116 cells assessed as accumulation of cells at Sub-G1 phase at 20 uM incubated for 48 hrs by PI staining based flow cytometry analysis (reference value: 2.7 +/- 0.4%). It is filed as functional.
Data set [8] addresses T1, DNA topoisomerase 1 (Homo sapiens) (UniProt P11387).
T1 sequence (whole entry): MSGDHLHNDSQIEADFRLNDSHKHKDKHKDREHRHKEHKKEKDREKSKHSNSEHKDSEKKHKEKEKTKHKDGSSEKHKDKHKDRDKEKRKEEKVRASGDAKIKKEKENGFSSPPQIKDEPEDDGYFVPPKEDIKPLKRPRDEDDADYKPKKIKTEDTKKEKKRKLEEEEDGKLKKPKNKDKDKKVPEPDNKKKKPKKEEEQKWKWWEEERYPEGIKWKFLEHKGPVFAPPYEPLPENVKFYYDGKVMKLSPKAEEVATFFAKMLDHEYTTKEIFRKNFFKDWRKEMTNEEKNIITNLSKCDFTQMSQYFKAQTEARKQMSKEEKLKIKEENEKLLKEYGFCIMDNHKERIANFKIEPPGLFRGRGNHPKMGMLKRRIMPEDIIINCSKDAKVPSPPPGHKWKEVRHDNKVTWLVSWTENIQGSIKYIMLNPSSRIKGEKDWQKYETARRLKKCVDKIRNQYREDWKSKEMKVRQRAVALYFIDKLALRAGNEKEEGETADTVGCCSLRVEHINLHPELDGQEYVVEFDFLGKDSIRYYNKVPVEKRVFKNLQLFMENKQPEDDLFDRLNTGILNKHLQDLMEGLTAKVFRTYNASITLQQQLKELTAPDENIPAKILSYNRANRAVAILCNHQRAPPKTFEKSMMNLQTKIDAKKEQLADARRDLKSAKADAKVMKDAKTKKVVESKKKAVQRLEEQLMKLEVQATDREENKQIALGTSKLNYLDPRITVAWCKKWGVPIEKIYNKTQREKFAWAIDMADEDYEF
Put plainly: Induction of TOP1 degradation in human HCT-116 cells at 20 uM after 2 to 24 hrs by alkaline lysis method. It counts as cell-based. To be noted: time 2-24 hrs.

In a further data set the test system is MIA PaCa-2. Nature of the data set: Cytotoxicity against human MIA PaCa-2 cells incubated for 72 hrs by MTT assay. It is filed as functional, cell-based. To be noted: MIA PaCa-2, 72 h.
Another data set has as its system Calf thymus DNA. Nature of the data set: Displacement of EtBr from calf thymus pUC19 DNA preincubated with EtBr for 15 mins followed by compound addition and measured after 30 mins by […] staining based fluorescence assay. It is filed as nucleic-acid assay. To be noted: Bos taurus, dose 100-300 µM.
Data set [9] has as its system HCT-116. Nature of the data set: Induction of cell cycle arrest in human HCT-116 cells at 5 to 20 uM by PI staining based flow cytometry analysis. It is filed as functional. To be noted: dose 5-20 µM, time 24-48 hrs, TDE = time-dependent effect.
Another data set relates to PANC-1. Nature of the data set: Cytotoxicity against human PANC-1 cells incubated for 72 hrs by MTT assay. It is filed as functional, cell-based. The settings on record: PANC-1, 72 h.
Data set [10] is described as follows: Stability in human plasma incubated for 2 hrs by HPLC analysis. It is filed as ADME, cell-free. To be noted: read-out: Stability.
Data set [11] has as its system DNA topoisomerase 1/Deoxyribonucleic acid (Homo sapiens). Nature of the data set: Induction of TOP1-DNA covalent complex degradation in human HCT-116 cells at 20 uM measured upto 24 hrs by RADAR assay. It counts as cell-based.

Molecules are shown by their SMILES. Activity calls are given as the source filed them. The rule behind the calls is not given here.

As for `O=C1c2cccc3cccc(c23)C(=O)N1CCSc1nnc(Cn2nc(Cc3ccc(F)cc3)c3ccccc3c2=O)o1`, the Activity with HCT-116 [1] was 30%; with HCT-116 [2] it was 39%; in data set [4], “Dose-Dependent Effect”; in data set [5], “Tde”; with HCT-116 [6] it was 35%; with HCT-116 [7] it was 57%. In addition, the Activity entry in the data set with Calf thymus DNA was “Dose-Dependent Effect”; with HCT-116 [9] it was “Tde”. For the same compound, the result (in the data set with HCT-116 [3]; in [8]; in [11]) was Active. Further, the IC50 came to 4.5 µM in the data set with MIA PaCa-2 and 4 µM in the data set with PANC-1. Also, in data set [10], the remaining at 2 h was over 70%.
